Patent US4794125A, “Compounds having an immunizing activity” (CL Pharma AG, priority 1984, dated 1988)

Tested on: delayed-type hypersensitivity
Test: DTH test (delayed-type hypersensitivity in mice), topical sensitization with oxazolone
Assay type: in vivo
Settings: dose 1.0 mg/kg; OF-1 mice; topical sensitization with ethanol oxazolone solution
Experimental: The compounds prepared in accordance with the invention were investigated using the DTH test (delayed-type hypersensitivity in mice) according to Dietrich, F. M. & Hess, R.: Hypersensitivity in mice.
The new compounds (2,6-bis-MAA=2,6-bis-/(methylamino)-acetylamino/-anthraquinone), CS-A=cyclosporin A, were tested in vivo in OF-1 mice by topical sensitization with antigen (ethanol oxazolone solution). The decrease in the inflammatory response versus untreated animals is expressed as % inhibition.

CNCC(=O)Nc1ccc2c(c1)C(=O)c1ccc(NC(=O)CNC)cc1C2=O [2,6-bis-MAA, 2,6-bis-(methylamino)-acetylamino-anthraquinone]
% Inhibition (decrease in the inflammatory response versus untreated animals): 35%
